Among the data in US9428513B2, “Triazolopyrazine” (Boehringer Ingelheim International GmbH, priority 2013, dated 2016) are IC50 values, retold here.

The term IC50 denotes the midpoint of a concentration-inhibition curve. Low readings indicate greater potency, high ones weaker potency.

In the assay the target is BRD4-BD1 (Homo sapiens (Human), UniProt O60885). Put plainly: BRD4-H4 Tetraacetylated Peptide Inhibition AlphaScreen. Particulars: GST-BRD4-BD1 (aa 44-168) / biotinylated Acetyl-Histone H4 (Lys5, 8, 12, 16) peptide. In kind it is biochemical. As to the method:
Biological Methods BRD4-H4 Tetraacetylated Peptide Inhibition AlphaScreen
Compounds are diluted in serial dilution 1:5 in assay buffer from 10 mM stock in DMSO (100 μM start concentration) in white OptiPlate-384 (PerkinElmer). A mix consisting of 15 nM GST-BRD4-BD1 protein (aa 44-168) or 150 nM GST-BRD4-BD2 (aa 333-460) and 15 nM biotinylated Acetyl-Histone H4 (Lys5, 8, 12, 16) peptide is prepared in assay buffer (50 mM HEPES pH=7.4; 25 mM NaCl; 0.05% Tween 20; 0.1% bovine serum albumin (BSA); 10 mM dithiothreitol (DTT)). 6 μl of the mix is added to the compound dilutions. Subsequently, 6 μl of premixed AlphaLISA Glutathione Acceptor Beads and AlphaScreen Streptavidin Donor Beads from PerkinElmer (in assay buffer at a concentration of 10 μg/ml each) are added and the samples are incubated for 30 min at RT in the dark (shaking 300 rpm). Afterwards, the signal is measured in a PerkinElmer Envision HTS Multilabel Reader using the AlphaScreen protocol from PerkinElmer.
Each plate contains negative controls where biotinylated Acetyl-Histone H4 peptide and GST-BRD4-BD1 or GST-BRD4-BD2 are left out and replaced by assay buffer. Negative control values are entered as low basis value when using the software GraphPad Prism for calculations. Furthermore, a positive control (probe molecule JQ1+ with protein/peptide mix) is pipetted. Determination of IC50 values are carried out using GraphPad Prism 3.03 software (or updates thereof).
For orientation: In Alpha technology, singlet oxygen from a donor bead excites a nearby acceptor bead.
`COC[C@H](C)n1c(-c2cn3c(C)nnc3c(NC(C)C)n2)nc2ccc(C3CN(C)CCO3)cc21` (stereo partly shown) [I-24]: half-maximal inhibition (IC50) required 63 nM. This lies in the double-digit nanomolar range.
Turning to `COC[C@H](C)n1c(-c2cn3c(C)nnc3c(NC(C)C)n2)nc2cnc(N3CCOC[C@@H]3C)cc21` [I-12], the IC50 was 51 nM.
In turn, `CNc1nc(-c2nc3cnc(N4CCOCC4)cc3n2[C@@H](C)COC)cn2c(C)nnc12` [I-6] yielded a concentration for half-maximal inhibition (IC50) of 51 nM. This lies in the double-digit nanomolar range.
`CNc1nc(-c2nc3cnc(N4CCOCC4)cc3n2CC2CCCO2)cn2c(C)nnc12` (stereo not shown) [I-9] had an IC50 of 65 nM.
For `COC[C@H](C)n1c(-c2cn3c(C)nnc3c(NC(C)C)n2)nc2ccc(N3CCOC[C@@H]3C)cc21` [I-19] the value was 58 nM; for `Cc1nnc2c(NC(C)C)nc(-c3nc4cnc(N5CCOC[C@@H]5C)cc4n3C(C)CC(F)(F)F)cn12` (stereo partly shown) [I-27], 26 nM.
The figure for `COC[C@H](C)n1c(-c2cn3c(C)nnc3c(N)n2)nc2cnc(N3CCOCC3)cc21` [I-26] is 123 nM.
`Cc1nnc2c(NC(C)C)nc(-c3nc4cnc(N5CCOCC5)cc4n3C[C@@H]3CCCO3)cn12` [I-8] yielded an IC50 of 55 nM.
The compound `COCCn1c(-c2cn3c(C)nnc3c(NC(C)C)n2)nc2cnc(N3CCOCC3)cc21` [I-1, 6-[1-(2-methoxyethyl)-6-(morpholin-4-yl)-1H-imidazo[4,5-c]pyridin-2-yl]-3-methyl-N-(propan-2-yl)-[1,2,4]triazolo[4,3-a]pyrazin-8-amine] yielded an IC50 of 32 nM.
In turn, `Cc1nnc2c(NC(C)C)nc(-c3nc4cnc(N5CCOCC5)cc4n3C[C@H]3CCCO3)cn12` [I-10] showed an IC50 of 54 nM.
The figure for `CNc1nc(-c2nc3cnc(N4CCOCC4)cc3n2C[C@@H]2CCCO2)cn2c(C)nnc12` [I-7] is 55 nM; for `COC[C@H](C)n1c(-c2cn3c(C)nnc3c(NC(C)C)n2)nc2ccc(N)cc21` [I-20] it is 157 nM; for `COCCn1c(-c2cn3c(C)nnc3c(NC(C)C)n2)nc2nc(N3CCOCC3)ccc21` [I-29] it is 49 nM.
As for `COC[C@H](C)n1c(-c2cn3c(C)nnc3c(NC(C)C)n2)nc2cnc(N3CCOCC3)cc21` [I-3], the IC50 is 33 nM.
Turning to `COC[C@H](C)n1c(-c2cn3c(C)nnc3c(NC(C)C)n2)nc2cnc(N)cc21` [I-18], the IC50 was determined as 69 nM.
`COC[C@H](C)n1c(-c2cn3c(C)nnc3c(NC(C)C)n2)nc2ccc(N3CCOCC3)nc21` [I-28] registered an IC50 of 69 nM.
Take `COC[C@@H](C)n1c(-c2cn3c(C)nnc3c(NC(C)C)n2)nc2cnc(N3CCOCC3)cc21` [I-2]: half-maximal inhibition (IC50) required 333 nM.
The figure for `COC[C@H](C)n1c(-c2cn3c(C)nnc3c(NC(C)C)n2)nc2cc3c(cc21)N(C(C)C)S(=O)(=O)C3(C)C` [I-21] is 17 nM.
Regarding `CNc1nc(-c2nc3cnc(N4CCOC[C@@H]4C)cc3n2[C@@H](C)COC)cn2c(C)nnc12` [I-13], the IC50 was 27 nM.
`COC[C@H](C)n1c(-c2cn3c(C)nnc3c(NC(C)C)n2)nc2cc3c(cc21)N(C)C(=O)C3(C)C` [I-16]: the IC50 is 22 nM.
On to `Cc1nnc2c(NC3CCN(C)CC3)nc(-c3nc4cnc(N5CCOCC5)cc4n3CCOC(C)C)cn12` [I-22], for which the IC50 was determined as 35 nM.
For `Cc1nnc2c(NC(C)C)nc(-c3nc4cnc(N5CCOC[C@@H]5C)cc4n3C(C)CC3CC3)cn12` (stereo partly shown) [I-25], it took 9 nM to reach half-maximal inhibition (IC50).
For `Cc1nnc2c(NC3CCN(S(C)(=O)=O)CC3)nc(-c3nc4cnc(N5CCOCC5)cc4n3CCOC(C)C)cn12` [I-23] the value was 122 nM; for `COC[C@H](C)n1c(-c2cn3c(C)nnc3c(NC(C)C)n2)nc2ccc(C3CCOCC3)cc21` [I-14], 49 nM.
Consider `COC[C@H](C)n1c(-c2cn3c(C)nnc3c(NC(C)C)n2)nc2ccc(C(C)C)cc21` [I-15], for which half-maximal inhibition (IC50) was put at 123 nM.
For `CNc1nc(-c2nc3cnc(N4CCOCC4)cc3n2[C@H](C)COC)cn2c(C)nnc12` [I-11] the value was 549 nM; for `CCOCCn1c(-c2cn3c(C)nnc3c(NC(C)C)n2)nc2cnc(N3CCOCC3)cc21` [I-5], 33 nM; for `Cc1nnc2c(NC(C)C)nc(-c3nc4cnc(N5CCOCC5)cc4n3CCOC(C)C)cn12` [I-4], 43 nM.
